Like-named read-outs stand apart in the source and are kept apart here.
Tests used:
canine Leishmaniosis [1] = details: conventional treatments monitored by serology, bibliography, cited from earlier work
canine Leishmaniosis [2] = experiment: Controlled study of a domperidone treatment plan in seronegative dogs in an endemic area (Example 5); assay type: in vivo, dog; details: treated group n = 120, two 30-day treatments at 0.5 mg/kg/day oral
Source text: The study lasted for 9 months, beginning at the onset of the activity period of the vector insect in the geographical area in which animals were found and closing three months after the end of this period. The presence of the vector was confirmed before starting the treatment.
The remaining 120 animals received a placebo under an equivalent dosage regime.

canine Leishmaniosis [3] = test system: canine Leishmaniosis
L. Infantum = details: 2 mg/kg/day, dogs infected with L. Infantum, ES 2246142; cited from earlier work
canine Leishmaniosis [4] = experiment: Clinical study of Domperidone alone in dogs with initial stage Leishmaniosis (Example 6); assay type: in vivo, dog; details: for percentage of dogs with antibody titre lower than DAY 0: oral 1 mg/kg/12 h (<30 kg) or 0.7 mg/kg/12 h for 30 days, 70 dogs
Method: A clinical study was performed including a group of 70 dogs with an initial stage of Leishmaniosis (antibody titre against Leishmania between 1/800 and 1/1600-threshold of positively 1/800-and oligosymptomatics).
[…] During said controls different immunological (antibody titre against Leishmania-DAT, intradermoreaction test-Leishmanina), clinical (clinical symptoms, body weight) and analytical (biochemical profile, haematology, proteinogram and urine test for the determination of UPC ratio) parameters were assessed.

Leishmania infantum = experiment: Circulating monocyte-derived macrophages from treated healthy dogs, in vitro infection with Leishmania infantum promastigotes; assay type: cell-based
Source text: It is designed as a prospective monocentric study. A total of 10 dogs have been included, each of them acting as its own control, for which reason it has not been considered necessary the use of a negative control. […] During the study several visits are paid the days 0 (basal), 15 and 30 of treatment, and days 60 and 90 (one and two months after finishing the treatment, respectively). During each visit blood is collected from animals and it is processed to isolate and culture monocytes-macrophages, which are then co-cultivated with Leishmania promastigotes. After 48 hours the nitroblue tetrazolium (NBT) reduction test is carried out on the cultures and the percentage of parasited macrophages and the number of amastigotes per macrophage were measured. Blood samples are also collected on days 0 and 90 to assess animal health by biochemical and haemathological analyses.

neutrophils = experiment: NBT reduction test in whole blood of healthy dogs: activated neutrophils; assay type: in vivo, dog
Method: (§1) 20 dogs of different breed, sex and age, were randomly distributed into two groups of 10. […] During the study several visits were paid (days 0, 15, 30, 60 and 90) during which some clinical examinations were done and blood samples were collected for biochemical, haemathological and serological analyses (DAT). The percentages of activated monocytes and neutrophils were determined in whole blood samples through the nitroblue tetrazolium (NBT) reduction test.

prolactine hormone = details: for Tmax of prolactine (time to maximum prolactine concentration), mean: male dog, serum
Method: During each of the 7 phases blood samples were extracted at different times (t=0 h, 0.5 h, 1 h, 2 h, 4 h, 6 h, 8 h, 10 h, 12 h, 18 h, 36 y 48 h) for determining serum concentrations of prolactine using a commercial immuno enzymatic assay kit.

monocytes = experiment: NBT reduction test in whole blood of healthy dogs: activated monocytes; assay type: in vivo, dog
Method: as §1

[5] = sample of Day 0 (basal), dogs given 0.5 mg/kg/day oral for 30 days
[6] = sample of Day 15, dogs given 0.5 mg/kg/day oral for 30 days
[7] = sample of Day 30, dogs given 0.5 mg/kg/day oral for 30 days
[8] = sample of Day 60 (one month after end of treatment)
[9] = sample of Day 90 (two months after end of treatment)
[10] = Day 0 (before treatment), 0.5 mg/kg/day oral for 30 days, healthy dogs n = 10
[11] = Day 15, 0.5 mg/kg/day oral for 30 days, healthy dogs n = 10
[12] = Day 30, 0.5 mg/kg/day oral for 30 days, healthy dogs n = 10
[13] = Day 90 (60 days after end of treatment), 0.5 mg/kg/day oral for 30 days

SMILES: Oc1ncnc2[nH]ncc12 [Alopurinol]
- time after onset of treatment until decrease in the antibody titre against Leishmania is observed (canine Leishmaniosis [1]): ≥ 180 days
- time after onset of treatment until decrease in the antibody titre against Leishmania is observed (canine Leishmaniosis [1]; listed as alopurinol): 180 days

SMILES: O=c1[nH]c2ccccc2n1CCCN1CCC(n2c(=O)[nH]c3cc(Cl)ccc32)CC1 [Domperidone]
- animals with seropositivity against Leishmania (DAT≧1/400) at the end of the study (canine Leishmaniosis [2]): 0%
- animals showing clinical symptoms indicative of adverse reactions attributable to the medication (canine Leishmaniosis [2]; 9 months): None
- Animals WITH signs of canine Leishmaniosis, accumulated percentage (canine Leishmaniosis [2]; end of study (9th month)): 0%
- Animals WITHOUT signs of canine Leishmaniosis, accumulated percentage (canine Leishmaniosis [2]; end of study (9th month)): 100%
- Animals WITH signs of canine Leishmaniosis, accumulated percentage (canine Leishmaniosis [3]; 0.5 mg/kg, 720 h): 11%
- Animals WITHOUT signs of canine Leishmaniosis, accumulated percentage (canine Leishmaniosis [3]; 0.5 mg/kg, 720 h): 85%
- Animals WITH signs of canine Leishmaniosis, accumulated percentage (canine Leishmaniosis [3]; treated group n = 45, 0.5 mg/kg/day for 30 days each four months, end of study (second year), highly endemic area): 11%
- effect on clinical signs of Leishmaniosis and level of antibodies (L. Infantum): able to reduce the clinical signs of Leishmaniosis and/or to reduce the level of antibodies in infected animals
- percentage of dogs with antibody titre lower than DAY 0 (canine Leishmaniosis [4]; DAY 30): 10%
- percentage of dogs with antibody titre lower than DAY 0 (canine Leishmaniosis [4]; DAY 90): 47%
- percentage of dogs with antibody titre lower than DAY 0 (canine Leishmaniosis [4]; DAY 180): 57%
- animals with total disappearance of clinical symptoms (mainly lymphadenopathy) (canine Leishmaniosis [4]; in the course of the 12 months after the onset of the treatment): 100%
- number of amastigotes per macrophage after 48 hours of in vitro co-culture with Leishmania infantum promastigotes, mean (Leishmania infantum; [5]): 44.4
- percentage of positive NBT macrophages after 48 hours of co-culture with Leishmania infantum promastigotes, mean (Leishmania infantum; [5]): 2.00%
- number of amastigotes per macrophage after 48 hours of in vitro co-culture with Leishmania infantum promastigotes, mean (Leishmania infantum; [6]): 9.7
- percentage of positive NBT macrophages after 48 hours of co-culture with Leishmania infantum promastigotes, mean (Leishmania infantum; [6]): 61.10%
- number of amastigotes per macrophage after 48 hours of in vitro co-culture with Leishmania infantum promastigotes, mean (Leishmania infantum; [7]): 11.3
- percentage of positive NBT macrophages after 48 hours of co-culture with Leishmania infantum promastigotes, mean (Leishmania infantum; [7]): 62.20%
- number of amastigotes per macrophage after 48 hours of in vitro co-culture with Leishmania infantum promastigotes, mean (Leishmania infantum; [8]): 23.1
- percentage of macrophages infected after 48 hours of in vitro culture with Leishmania infantum promastigotes, mean (Leishmania infantum; [8]): 82.6%
- percentage of positive NBT macrophages after 48 hours of co-culture with Leishmania infantum promastigotes, mean (Leishmania infantum; [8]): 1.70%
- number of amastigotes per macrophage after 48 hours of in vitro co-culture with Leishmania infantum promastigotes, mean (Leishmania infantum; [9]): 42.6
- percentage of macrophages infected after 48 hours of in vitro culture with Leishmania infantum promastigotes, mean (Leishmania infantum; [9]): 89.5%
- percentage of positive NBT macrophages after 48 hours of co-culture with Leishmania infantum promastigotes, mean (Leishmania infantum; [9]): 1.80%
- percentage of activated neutrophils, mean (neutrophils; [10]): 5.700%
- percentage of activated neutrophils, mean (neutrophils; [11]): 38.50%
- percentage of activated neutrophils, mean (neutrophils; [12]): 40.00%
- percentage of activated neutrophils, mean (neutrophils; [13]): 5.900%
- average concentrations of prolactine in the first 36 hours after administration versus placebo (prolactine hormone; all six dosages 0.125-4 mg/kg, single oral dose): remained above the prolactine concentration in the group treated with the placebo
- Tmax of prolactine (time to maximum prolactine concentration), mean (prolactine hormone; single oral dose 0.125 mg/kg): 8.6 h
- Tmax of prolactine (time to maximum prolactine concentration), mean (prolactine hormone; single oral dose 0.250 mg/kg): 7.2 h
- Tmax of prolactine (time to maximum prolactine concentration), mean (prolactine hormone; single oral dose 0.5 mg/kg): 3.7 h
- Tmax of prolactine (time to maximum prolactine concentration), mean (prolactine hormone; single oral dose 1 mg/kg): 2.7 h
- Tmax of prolactine (time to maximum prolactine concentration), mean (prolactine hormone; single oral dose 2 mg/kg): 5.0 h
- Tmax of prolactine (time to maximum prolactine concentration), mean (prolactine hormone; single oral dose 4 mg/kg): 4.6 h
- percentage of activated monocytes, mean (monocytes; [10]): 3.200%
- percentage of activated monocytes, mean (monocytes; [11]): 26.10%
- percentage of activated monocytes, mean (monocytes; [12]): 26.40%
- percentage of activated monocytes, mean (monocytes; Day 60 (30 days after end of treatment), 0.5 mg/kg/day oral for 30 days): 8.600%
- percentage of activated monocytes, mean (monocytes; [13]): 3.100%
